Results as given in publication PMC2375353, “Effective treatment of experimental U-87MG human glioblastoma in nude mice with a targeted cytotoxic bombesin analogue, AN-215” (British Journal of Cancer, 2002).

System: U-87MG human glioblastoma xenografted into nude mice
Assay: Experiment 2: growth of s.c. U-87MG xenografts, with BN receptor blockade
Assay type: in vivo, human tumour in male athymic nude mice
Details: RC-3095 200 μg i.v. 15 min before AN-215 150 nmol kg^-1
Description: Human glioblastoma cell line U-87MG was obtained from American Type Culture Collection (Manassas, VA, USA) and cultured as described ([Pinski et al, 1994]). Male athymic (Ncr nu/nu) nude mice, approximately 6-weeks-old on arrival, were obtained from the National Cancer Institute (Frederick Cancer Research and Development Center, Frederick, MD, USA), and housed in laminar air-flow cabinets under pathogen-free conditions with a 12 h light/12 h dark schedule, and fed autoclaved standard chow and water ad libitum. Xenografts were initiated by s.c. injection of 12×10^6 U-87MG cells into the right flanks of five male nude mice. Tumours resulting after 2 weeks were aseptically dissected, mechanically minced, and 3-mm^3 pieces of tumour tissue were transplanted s.c. with a trocar needle. The take rate was 100%. All experiments were performed in accordance with institutional ethical guidelines of animal care and were essentially in agreement with [UKCCCR guidelines (1998)] for the welfare of animals in experimental neoplasia.
Experiment 2 was started when U-87MG tumours had grown to 70–84 mm^3 in volume. The animals were divided into the following treatment groups: group 1 (10 mice), control, vehicle solution; group 2 (10 mice), analogue AN-215; group 3 (five mice), unconjugated mixture of the cytotoxic radical AN-201 and BN antagonist RC-3095. All compounds were injected i.v. at 150 nmol kg^−1 of BW on days 1, 10, and 17. In addition, one group of tumour-bearing mice received an i.v. injection of 200 μg of BN antagonist RC-3095 15 min before each administration of AN-215 at a dose of 150 nmol kg^−1 of BW on days 1, 10 and 17 as in the case of group 2. The experiment was terminated on day 20 as described above.
Data are expressed as mean±s.e. Differences between mean values were evaluated by two-tailed Student's t-test, P<0.05 being considered significant.

[D-Tpi^6,Leu^13ψ(CH2NH)Leu^14]BN (6-14) [RC-3095, reference compound]
Antitumour effect after BN receptor blockade: attenuated the antitumour effect of the cytotoxic BN analogue AN-215
